Data set [1] deals with T1, Recombinant human BACE1 (Homo sapiens, UniProt P56817).
T1 construct: purchased R&D Systems
Nature of the data set: Assay of BACE1 inhibitory activity. Format: biochemical. Conditions: Recombinant human BACE1, 30° C., 3 hours, pH 5.0; read-out: IC50 (50% inhibitory concentration against the enzymatic activity). As to the method:
48.5 μL of substrate peptide solution (Biotin-XSEVNLDAEFRHDSGC-Eu: X=ε-amino-n-capronic acid, Eu=Europium cryptate) was added to each well of 96-hole half-area plate (a black plate: Costar), and after addition of 0.5 μl of the compound of the present invention (N,N′-dimethylformamide solution) and 1 μl of Recombinant human BACE1(R&D Systems), the reaction mixture was incubated at 30° C. for 3 hours. The substrate peptide was synthesized by reacting Cryptate TBPCOOH mono SMP (CIS bio international) with Biotin-XSEVNLDAEFRHDSGC (Peptide Institute, Inc.). The final concentrations of the substrate peptide and Recombinant human BACE1 were adjusted to 18 nmol/L and 7.4 nmol/L, respectively, and the reaction was performed in sodium acetate buffer (50 mmol/L sodium acetate, pH 5.0, 0.008% Triton X-100). After the incubation for reaction, 50 μl of 8.0 μg/ml Streptavidin-XL665 (CIS bio international) dissolved in phosphate buffer (150 mmol/L K2HPO4—KH2PO4, pH 7.0, 0.008% Triton X-100, 0.8 mol/L KF) was added to each well and left stand at 30° C. for 1 hour. After then, fluorescence intensity was measured (excitation wavelength: 320 nm, measuring wavelength: 620 nm and 665 nm) using Wallac 1420 multilabel counter (Perkin Elmer life sciences). Enzymatic activity was determined from counting ratio of each wavelength (10,000×Count 665/Count 620) and 50% inhibitory concentration against the enzymatic activity (IC50) was calculated.

In data set [2] the target is T2, CYP1A2 (Homo sapiens, UniProt P05177).
T2 construct: enzyme, pooled human hepatic microsome 0.2 mg protein/mL; from tissue; host or cells: pooled human hepatic microsome
T2 sequence (P05177 1-516): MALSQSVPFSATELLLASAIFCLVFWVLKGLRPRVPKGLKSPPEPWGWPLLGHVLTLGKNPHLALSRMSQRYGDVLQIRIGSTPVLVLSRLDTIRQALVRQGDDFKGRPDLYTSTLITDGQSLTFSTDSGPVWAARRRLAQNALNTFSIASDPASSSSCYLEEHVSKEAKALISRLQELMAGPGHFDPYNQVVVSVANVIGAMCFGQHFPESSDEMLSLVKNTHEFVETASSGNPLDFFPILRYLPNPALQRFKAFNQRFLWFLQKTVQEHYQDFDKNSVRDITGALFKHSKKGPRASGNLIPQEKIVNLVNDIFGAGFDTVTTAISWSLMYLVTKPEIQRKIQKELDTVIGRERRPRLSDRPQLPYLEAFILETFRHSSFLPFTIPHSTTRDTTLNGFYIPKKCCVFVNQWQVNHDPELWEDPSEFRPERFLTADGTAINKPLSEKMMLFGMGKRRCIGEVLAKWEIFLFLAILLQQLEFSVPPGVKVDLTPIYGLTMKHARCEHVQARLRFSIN
Nature of the data set: CYP inhibition test (CYP1A2). In kind it is in vitro ADME. Conditions: pooled human hepatic microsome, 7-ethoxyresorufin O-deethylation. An excerpt: (§1) Using commercially available pooled human hepatic microsome, and employing, as markers, 7-ethoxyresorufin O-deethylation (CYP1A2), tolbutamide methyl-hydroxylation (CYP2C9), mephenyloin 4′-hydroxylation (CYP2C19), dextromethorphan O-demethylation (CYP2D6), and terfenedine hydroxylation (CYP3A4) as typical substrate metabolism reactions of human main five CYP enzyme forms (CYP1A2, 2C9, 2C19, 2D6, 3A4), an inhibitory degree of each metabolite production amount by a compound of the present invention was assessed. […] After the centrifugation at 3000 rpm for 15 minutes, resorufin (CYP1A2 metabolite) in the supernatant was quantified by a multi-label counter and hydroxytolbutamide (CYP2C9 metabolite), 4′-hydroxymephenyloin (CYP2C19 metabolite), dextrorphan (CYP2D6 metabolite), and terfenadine alcohol metabolite (CYP3A4 metabolite) were quantified by LC/MS/MS. Addition of only DMSO being a solvent dissolving a compound to a reaction system was adopted as a control (100%), remaining activity (%) was calculated and IC50 was calculated by reverse presumption by a logistic model using a concentration and an inhibition rate.

For data set [3], the target named is T3, CYP2C9 (Homo sapiens, UniProt P11712).
T3 construct: enzyme, pooled human hepatic microsome 0.2 mg protein/mL; from tissue; host or cells: pooled human hepatic microsome
Nature of the data set: CYP inhibition test (CYP2C9). In kind it is in vitro ADME. Conditions: pooled human hepatic microsome, tolbutamide methyl-hydroxylation.
Excerpt: as §1

Data set [4] has as its target T4, CYP2C19 (Homo sapiens, UniProt P33261).
T4 construct: enzyme, pooled human hepatic microsome 0.2 mg protein/mL; from tissue; host or cells: pooled human hepatic microsome
In words: CYP inhibition test (CYP2C19). In kind it is in vitro ADME. Conditions: pooled human hepatic microsome, mephenyloin 4′-hydroxylation.
Excerpt: as §1

For data set [5], the target named is T5, CYP2D6 (Homo sapiens, UniProt P10635).
T5 construct: enzyme, pooled human hepatic microsome 0.2 mg protein/mL; from tissue; host or cells: pooled human hepatic microsome
In words: CYP inhibition test (CYP2D6). In kind it is in vitro ADME. Conditions: pooled human hepatic microsome, dextromethorphan O-demethylation.
Excerpt: as §1

For data set [6], the target named is CYP3A4 (Homo sapiens, UniProt P08684). In words: CYP inhibition test (CYP3A4). In kind it is in vitro ADME. Also noted: enzyme, pooled human hepatic microsome 0.2 mg protein/mL; from tissue; host or cells: pooled human hepatic microsome. Conditions: pooled human hepatic microsome, terfenedine hydroxylation.
Excerpt: as §1

The nature of data set [7]: Metabolism stability test. Conditions: human liver microsomes 0.5 mg protein/mL, 37° C., 30 minutes, NADPH. In kind it is in vitro ADME. As to the method:
Using a commercially available pooled human hepatic microsomes, a compound of the present invention is reacted for a constant time, a remaining rate is calculated by comparing a reacted sample and an unreacted sample, thereby, a degree of metabolism in liver of the compound of the present invention is assessed.
A reaction is performed (oxidative reaction) at 37° C. for 0 minute or 30 minutes in the presence of 1 mmol/L NADPH in 0.2 mL of a buffer (50 mmol/L Tris-HCl pH 7.4, 150 mmol/L potassium chloride, 10 mmol/L magnesium chloride) containing 0.5 mg protein/mL of human liver microsomes. After the reaction, 50 μL of the reaction solution is added to 100 μL of a methanol/acetonitrile=1/1 (v/v), mixed and centrifuged at 3000 rpm for 15 minutes. The compound of the present invention in the supernatant is quantified by LC/MS/MS, and a remaining amount of the compound of the present invention after the reaction is calculated, letting a compound amount at 0 minute reaction time to be 100%.

T1 sequence (P56817 46-501): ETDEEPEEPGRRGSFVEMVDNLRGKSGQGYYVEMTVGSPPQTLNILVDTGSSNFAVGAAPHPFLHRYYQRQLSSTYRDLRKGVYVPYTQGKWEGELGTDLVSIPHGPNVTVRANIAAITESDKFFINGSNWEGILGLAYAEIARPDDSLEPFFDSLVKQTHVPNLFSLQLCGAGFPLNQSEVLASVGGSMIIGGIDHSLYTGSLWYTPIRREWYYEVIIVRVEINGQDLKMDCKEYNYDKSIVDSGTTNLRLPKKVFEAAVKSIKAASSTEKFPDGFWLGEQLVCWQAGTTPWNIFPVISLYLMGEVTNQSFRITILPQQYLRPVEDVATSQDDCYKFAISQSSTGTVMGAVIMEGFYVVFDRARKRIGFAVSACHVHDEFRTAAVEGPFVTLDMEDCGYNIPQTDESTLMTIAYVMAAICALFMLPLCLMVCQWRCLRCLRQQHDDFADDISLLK
T3 sequence (P11712 whole entry): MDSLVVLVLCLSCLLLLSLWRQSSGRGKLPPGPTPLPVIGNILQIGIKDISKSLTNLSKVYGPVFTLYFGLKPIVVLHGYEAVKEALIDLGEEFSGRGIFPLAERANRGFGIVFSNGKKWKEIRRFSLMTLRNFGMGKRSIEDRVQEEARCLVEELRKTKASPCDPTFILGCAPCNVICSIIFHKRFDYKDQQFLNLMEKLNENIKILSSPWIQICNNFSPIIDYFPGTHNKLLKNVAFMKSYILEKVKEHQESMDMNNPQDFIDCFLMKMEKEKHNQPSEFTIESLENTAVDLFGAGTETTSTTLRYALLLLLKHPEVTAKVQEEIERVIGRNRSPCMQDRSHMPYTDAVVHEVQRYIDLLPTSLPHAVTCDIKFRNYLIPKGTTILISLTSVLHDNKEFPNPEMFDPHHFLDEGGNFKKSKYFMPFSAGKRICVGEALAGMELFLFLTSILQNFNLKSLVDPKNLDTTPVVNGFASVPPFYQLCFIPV
T5 sequence (P10635 whole entry): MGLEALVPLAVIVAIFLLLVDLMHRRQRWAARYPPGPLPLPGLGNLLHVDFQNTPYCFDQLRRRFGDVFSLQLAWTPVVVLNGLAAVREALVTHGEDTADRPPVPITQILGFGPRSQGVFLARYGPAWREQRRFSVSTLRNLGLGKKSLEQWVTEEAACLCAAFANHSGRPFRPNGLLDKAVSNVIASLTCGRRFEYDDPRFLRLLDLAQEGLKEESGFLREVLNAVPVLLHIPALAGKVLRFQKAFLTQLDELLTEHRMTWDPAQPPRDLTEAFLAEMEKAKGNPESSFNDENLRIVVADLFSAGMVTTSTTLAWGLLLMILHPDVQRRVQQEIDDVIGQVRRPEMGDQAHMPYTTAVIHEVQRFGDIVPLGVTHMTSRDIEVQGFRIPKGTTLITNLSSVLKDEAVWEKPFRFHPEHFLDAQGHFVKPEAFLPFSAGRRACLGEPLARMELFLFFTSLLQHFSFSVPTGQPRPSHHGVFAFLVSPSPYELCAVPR
T4 sequence (P33261 whole entry): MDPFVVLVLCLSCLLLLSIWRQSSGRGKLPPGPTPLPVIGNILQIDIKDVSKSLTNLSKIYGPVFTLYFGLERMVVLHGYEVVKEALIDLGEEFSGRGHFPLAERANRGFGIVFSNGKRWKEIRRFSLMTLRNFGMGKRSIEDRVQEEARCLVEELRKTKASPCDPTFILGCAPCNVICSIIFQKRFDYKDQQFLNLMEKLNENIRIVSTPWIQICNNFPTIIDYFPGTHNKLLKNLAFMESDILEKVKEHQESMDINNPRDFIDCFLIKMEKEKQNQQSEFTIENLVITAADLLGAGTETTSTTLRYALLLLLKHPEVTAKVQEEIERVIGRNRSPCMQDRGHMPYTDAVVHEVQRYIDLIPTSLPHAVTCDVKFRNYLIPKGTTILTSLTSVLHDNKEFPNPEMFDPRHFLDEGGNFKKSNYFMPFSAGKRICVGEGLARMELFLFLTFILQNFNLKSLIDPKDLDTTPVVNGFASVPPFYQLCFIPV
CYP3A4, sequence (P08684 whole entry): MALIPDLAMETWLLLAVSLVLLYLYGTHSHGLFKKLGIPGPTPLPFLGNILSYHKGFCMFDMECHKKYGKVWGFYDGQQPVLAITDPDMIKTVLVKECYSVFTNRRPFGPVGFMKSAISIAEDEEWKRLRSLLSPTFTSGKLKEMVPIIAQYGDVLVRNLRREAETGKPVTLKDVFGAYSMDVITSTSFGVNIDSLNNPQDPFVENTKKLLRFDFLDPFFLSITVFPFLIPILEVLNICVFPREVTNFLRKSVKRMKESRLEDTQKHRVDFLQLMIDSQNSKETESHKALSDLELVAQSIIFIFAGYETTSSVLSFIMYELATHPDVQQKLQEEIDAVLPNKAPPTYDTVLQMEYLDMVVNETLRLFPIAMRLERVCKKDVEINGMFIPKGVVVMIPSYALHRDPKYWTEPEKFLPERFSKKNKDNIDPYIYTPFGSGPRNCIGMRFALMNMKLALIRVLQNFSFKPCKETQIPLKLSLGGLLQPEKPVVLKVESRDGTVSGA

`CC1(c2cc(NC(=O)c3ncc(F)cc3F)ccc2F)Cc2ccncc2C(N)=N1` (centres unmarked) [Compound I-2]: the IC50 in data set [1] was not above 1 µM; in data set [2] it was more than 20 µM; in data set [3] it was more than 20 µM; in data set [4] it was more than 20 µM; in data set [5] it was more than 20 µM; in data set [6], more than 20 µM.
Turning to `CC1(c2cc(NC(=O)c3ccc(C#N)cn3)ccc2F)Cc2cnccc2C(N)=N1` (centres unmarked) [Compound I-5], the IC50 in data set [1] was not above 1 µM. The “remaining amount after the reaction” value in data set [7] was 88%.

The values are drawn from US8927721B2, “Naphthyridine derivative” (Shionogi & Co., Ltd., priority 2010, dated 2015).
